Test results: PubChem BioAssay AID1963829 (Molecular Pharmacology Branch, DTP, NCI, 2024)

System: 935938-334-R-J1-PDC complex spheroid viability
Assay: Anticancer human tumor 935938-334-R-J1-PDC patient-derived small intestine adenocarcinoma cell line growth inhibition [POLQ]
Settings: for IC50: curve of first compound; for viability, T/C: stronger effect = lower value
In short: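 Growth inhibition in 3D: complex spheroids (tumor PDC, HUVEC, MSC) treated with POLQ inhibitor combinations; where Cmax unknown, highest tested concentration 10 microM, except SN-38 at 1 microM.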

[1] = second compound 0.0316 µM, first compound 0.0316 µM
[2] = second compound 0.0316 µM, first compound 0.1 µM
[3] = second compound 0.0316 µM, first compound 0.316 µM
[4] = second compound 0.0316 µM, first compound 1 µM
[5] = second compound 0.1 µM, first compound 0.0316 µM
[6] = second compound 0.1 µM, first compound 0.1 µM
[7] = second compound 0.1 µM, first compound 0.316 µM
[8] = second compound 0.1 µM, first compound 1 µM
[9] = second compound 0.316 µM, first compound 0.0316 µM
[10] = second compound 0.316 µM, first compound 0.1 µM
[11] = second compound 0.316 µM, first compound 0.316 µM
[12] = second compound 0.316 µM, first compound 1 µM
[13] = second compound 1 µM, first compound 0.0316 µM
[14] = second compound 1 µM, first compound 0.1 µM
[15] = second compound 1 µM, first compound 0.316 µM
[16] = second compound 1 µM, first compound 1 µM
[17] = second compound 3.16 µM, first compound 0.0316 µM
[18] = second compound 3.16 µM, first compound 0.1 µM
[19] = second compound 3.16 µM, first compound 0.316 µM
[20] = second compound 3.16 µM, first compound 1 µM
[21] = second compound 10 µM, first compound 0.0316 µM
[22] = second compound 10 µM, first compound 0.1 µM
[23] = second compound 10 µM, first compound 0.316 µM
[24] = second compound 10 µM, first compound 1 µM
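Note: spheroids exposed to drugs for seven days before viability read.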
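Throughout, for viability, T/C: 100% = DMSO vehicle control wells.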

## Nc1ccn(C2OC(CO)C(O)C2(F)F)c(=O)n1 (centres undefined) + Cc1cccc(N(C)C(=O)C2C(O)CCN2c2nc(C)cc(C(F)(F)F)c2C#N)c1
Second compound 0.0316 µM
  IC50: < 31.6 nM
Second compound 0.1 µM
  IC50: < 31.6 nM
Second compound 0.316 µM
  IC50: < 31.6 nM
Second compound 1 µM
  IC50: < 31.6 nM
Second compound 3.16 µM
  IC50: < 31.6 nM
Second compound 10 µM
  IC50: < 31.6 nM
[1]
  viability, T/C: 40.4%
[2]
  viability, T/C: 27.8%
[3]
  viability, T/C: 23.1%
[4]
  viability, T/C: 21%
Second compound 0.0316 µM, first compound 3.16 µM
  viability, T/C: 18.2%
Second compound 0.0316 µM, first compound 10 µM
  viability, T/C: 16.3%
[5]
  viability, T/C: 32.9%
[6]
  viability, T/C: 29.7%
[7]
  viability, T/C: 21.4%
[8]
  viability, T/C: 21.1%
Second compound 0.1 µM, first compound 3.16 µM
  viability, T/C: 20.2%
Second compound 0.1 µM, first compound 10 µM
  viability, T/C: 21.2%
[9]
  viability, T/C: 40.2%
[10]
  viability, T/C: 30.9%
[11]
  viability, T/C: 23.2%
[12]
  viability, T/C: 23.4%
Second compound 0.316 µM, first compound 3.16 µM
  viability, T/C: 18.8%
Second compound 0.316 µM, first compound 10 µM
  viability, T/C: 18.1%
[13]
  viability, T/C: 37.4%
[14]
  viability, T/C: 27.7%
[15]
  viability, T/C: 26.6%
[16]
  viability, T/C: 23.2%
Second compound 1 µM, first compound 3.16 µM
  viability, T/C: 22.8%
Second compound 1 µM, first compound 10 µM
  viability, T/C: 19.9%
[17]
  viability, T/C: 37.3%
[18]
  viability, T/C: 33.8%
[19]
  viability, T/C: 24.8%
[20]
  viability, T/C: 19.2%
Second compound 3.16 µM, first compound 3.16 µM
  viability, T/C: 23.2%
Second compound 3.16 µM, first compound 10 µM
  viability, T/C: 20.3%
[21]
  viability, T/C: 39.2%
[22]
  viability, T/C: 35.4%
[23]
  viability, T/C: 29.2%
[24]
  viability, T/C: 23.3%
Second compound 10 µM, first compound 3.16 µM
  viability, T/C: 26.2%
Second compound 10 µM, first compound 10 µM
  viability, T/C: 19.2%

## CCc1c2c(nc3ccc(O)cc13)-c1cc3c(c(=O)n1C2)COC(=O)[C@]3(O)CC + Cc1cccc(N(C)C(=O)C2C(O)CCN2c2nc(C)cc(C(F)(F)F)c2C#N)c1
Second compound 0.0316 µM
  IC50: 15.8 nM
Second compound 0.1 µM
  IC50: 19.9 nM
Second compound 0.316 µM
  IC50: 24.5 nM
Second compound 1 µM
  IC50: 22.7 nM
Second compound 3.16 µM
  IC50: 24.3 nM
Second compound 10 µM
  IC50: 26.1 nM
Second compound 0.0316 µM, first compound 0.00316 µM
  viability, T/C: 96.3%
Second compound 0.0316 µM, first compound 0.01 µM
  viability, T/C: 55.6%
[1]
  viability, T/C: 41.4%
[2]
  viability, T/C: 33.8%
[3]
  viability, T/C: 36.6%
[4]
  viability, T/C: 29.1%
Second compound 0.1 µM, first compound 0.00316 µM
  viability, T/C: 98.1%
Second compound 0.1 µM, first compound 0.01 µM
  viability, T/C: 66.6%
[5]
  viability, T/C: 38.9%
[6]
  viability, T/C: 32.5%
[7]
  viability, T/C: 33.4%
[8]
  viability, T/C: 32.4%
Second compound 0.316 µM, first compound 0.00316 µM
  viability, T/C: 109%
Second compound 0.316 µM, first compound 0.01 µM
  viability, T/C: 83%
[9]
  viability, T/C: 40.7%
[10]
  viability, T/C: 34%
[11]
  viability, T/C: 38.3%
[12]
  viability, T/C: 35.4%
Second compound 1 µM, first compound 0.00316 µM
  viability, T/C: 82.9%
Second compound 1 µM, first compound 0.01 µM
  viability, T/C: 63.2%
[13]
  viability, T/C: 43.5%
[14]
  viability, T/C: 36.6%
[15]
  viability, T/C: 33.3%
[16]
  viability, T/C: 29.2%
Second compound 3.16 µM, first compound 0.00316 µM
  viability, T/C: 87.6%
Second compound 3.16 µM, first compound 0.01 µM
  viability, T/C: 85.3%
[17]
  viability, T/C: 39.4%
[18]
  viability, T/C: 37.7%
[19]
  viability, T/C: 39.3%
[20]
  viability, T/C: 31.7%
Second compound 10 µM, first compound 0.00316 µM
  viability, T/C: 115%
Second compound 10 µM, first compound 0.01 µM
  viability, T/C: 66.9%
[21]
  viability, T/C: 43.2%
[22]
  viability, T/C: 45.9%
[23]
  viability, T/C: 35%
[24]
  viability, T/C: 31.5%
